What was measured:
[1] = test system: oval-leafed pondweed; experiment: Test Example 1: herbicidal activity, application before weed generation under submerged conditions (Table 16, symbol C); assay type: in vivo, oval-leafed pondweed (Monochoria vaginalis); details: amount of applied herbicide 320 g/ha
In short: (§1)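 Emulsion formulation, water-diluted to set dose, was put onto the flooded surface (4 cm depth, alluvial soil) the same day weeds were sown and 2.5-leaf rice transplanted. After 3 weeks at 25-30 °C under glass, each species was rated 0 (≤5% kill) to 5 (≥90% kill).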

[2] = test system: late watergrass; experiment: Test Example 1: herbicidal activity, application before weed generation under submerged conditions (Table 16, symbol A); assay type: in vivo, late watergrass (Echinochloa oryzicola); details: amount of applied herbicide 320 g/ha
In short: as §1

[3] = test system: southern crabgrass; experiment: Test Example 4: herbicidal effect by soil treatment (Table 19, symbol F); assay type: in vivo, southern crabgrass (Digitaria ciliaris); details: amount of applied herbicide 320 g/ha
In short: (§2)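 Step 1: sow seeds in sterilized diluvial soil, cover ~1.5 cm. Step 2: spray diluted emulsion onto soil surface at predetermined rate. Step 3: greenhouse, 25–30° C, three weeks. Step 4: grade effect on each plant by earlier criteria.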

[4] = test system: barnyard grass; experiment: Test Example 5: herbicidal effect by foliage application, plastic box (Table 20, symbol H); assay type: in vivo, barnyard grass (Echinochloa crus-galli); details: foliage application, 320 g/ha; for herbicidal effect on barnyard grass (H): three weeks after application
In short: (§3)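 Foliar spray test: emulsion formulation diluted in water to a set application rate, sprayed onto 14-day-old plants raised in diluvial soil at 25° C to 30° C under glass. Both herbicidal effect and crop effect rated visually three weeks later.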

[5] = test system: oval-leafed pondweed; experiment: Test Example 2: herbicidal activity, application during weed generation under submerged conditions (Table 17, symbol C); assay type: in vivo, oval-leafed pondweed (Monochoria vaginalis); details: AAH 320 g/ha; application during weed generation, submerged conditions
In short: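 Effect on each weed is rated three weeks post-treatment, using the same scoring criteria as the preceding test. Plants grow from mixed-sown seed in flooded alluvial soil (4 cm water) at 25° C. to 30° C., and are treated at one to two leaves with diluted emulsion dropped onto the water.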

[6] = test system: rice flat sedge; experiment: Test Example 3: herbicidal effect by foliage application, Wagner pot (Table 18, symbol E); assay type: in vivo, rice flat sedge (Cyperus iria); details: amount of applied herbicide 320 g/ha
In short: (§4)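 Plants were sown in alluvial soil held under 0.1–0.5 cm standing water and grown 14 days in a greenhouse at 25–30 °C. An emulsifiable formulation, water-diluted to the set dose, was then sprayed onto the foliage, and effects were scored three weeks later using previously defined criteria.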

[7] = test system: wild oat; experiment: Test Example 5: herbicidal effect by foliage application, plastic box (Table 20, symbol I); assay type: in vivo, wild oat (Avena fatua); details: foliage application, 320 g/ha; for herbicidal effect on wild oat (I): three weeks after application
In short: as §3

[8] = test system: redroot pigweed; experiment: Test Example 4: herbicidal effect by soil treatment (Table 19, symbol N); assay type: in vivo, redroot pigweed (Amaranthus retroflexus); details: amount of applied herbicide 320 g/ha
In short: as §2

[9] = test system: Chinese sprangletop; experiment: Test Example 3: herbicidal effect by foliage application, Wagner pot (Table 18, symbol D); assay type: in vivo, chinese sprangletop (Leptochloa chinensis); details: amount of applied herbicide 320 g/ha
In short: as §4

[10] = test system: southern crabgrass; experiment: Test Example 5: herbicidal effect by foliage application, plastic box (Table 20, symbol F); assay type: in vivo, southern crabgrass (Digitaria ciliaris); details: foliage application, 320 g/ha; for herbicidal effect on southern crabgrass (F): three weeks after application
In short: as §3

[11] = test system: false cleavers; experiment: Test Example 4: herbicidal effect by soil treatment (Table 19, symbol Q); assay type: in vivo, false cleavers (Galium spurium); details: amount of applied herbicide 320 g/ha
In short: as §2

[12] = test system: Japanese bulrush; experiment: Test Example 1: herbicidal activity, application before weed generation under submerged conditions (Table 16, symbol B); assay type: in vivo, Japanese bulrush (Schoenoplectus juncoides); details: amount of applied herbicide 320 g/ha
In short: as §1

[13] = test system: green foxtail; experiment: Test Example 5: herbicidal effect by foliage application, plastic box (Table 20, symbol G); assay type: in vivo, green foxtail (Setaria viridis); details: foliage application, 320 g/ha; for herbicidal effect on green foxtail (G): three weeks after application
In short: as §3

[14] = test system: lambsquarters; experiment: Test Example 5: herbicidal effect by foliage application, plastic box (Table 20, symbol O); assay type: in vivo, lambsquarters (Chenopodium album); details: foliage application, 320 g/ha; for herbicidal effect on lambsquarters (O): three weeks after application
In short: as §3

[15] = test system: persian speedwell; experiment: Test Example 4: herbicidal effect by soil treatment (Table 19, symbol R); assay type: in vivo, Persian speedwell (Veronica persica); details: amount of applied herbicide 320 g/ha
In short: as §2

[16] = test system: windgrass; experiment: Test Example 5: herbicidal effect by foliage application, plastic box (Table 20, symbol L); assay type: in vivo, windgrass (Apera spica-venti); details: foliage application, 320 g/ha; for herbicidal effect on windgrass (L): three weeks after application
In short: as §3

[17] = test system: windgrass; experiment: Test Example 4: herbicidal effect by soil treatment (Table 19, symbol L); assay type: in vivo, windgrass (Apera spica-venti); details: amount of applied herbicide 320 g/ha
In short: as §2

[18] = evaluated 3 weeks after application

For CCOc1ccc(-c2oc3ccc(F)cc3c2-c2c(O)c(C)nn(C)c2=O)cc1 [9-021], the “Herbicidal effect, C: oval-leafed pondweed” value (“Herbicidal effect, C” below) [1] was 5 (Herbicidal rate of 90% or more (almost completely withered)), the “Herbicidal effect, A: late watergrass” value [2] was 5 (Herbicidal rate of 90% or more (almost completely withered)) and the “F: southern crabgrass, herbicidal effect grade” value (“F: southern crabgrass” for short) [3] was 4 (Herbicidal rate of 70% or more and less than 90%). For the same compound, the “herbicidal effect on barnyard grass (H)” value [4] was 3 (Herbicidal rate of 40% or more and less than 70%), the “herbicidal effect rating, C: oval-leafed pondweed” value (from here on “herbicidal effect rating, C”) [5] was 4 (Herbicidal rate of 70% or more and less than 90%) and the “Herbicidal effect on E (rice flat sedge), foliage application” value (“Herbicidal effect on E (rice flat sedge)” for short) [6] was 5 (Herbicidal rate of 90% or more (almost completely withered)). The “herbicidal effect on wild oat (I)” value [7] was 4 (Herbicidal rate of 70% or more and less than 90%), the “N: redroot pigweed, herbicidal effect grade” value (“N: redroot pigweed” for short) [8] was 5 (Herbicidal rate of 90% or more (almost completely withered)) and the “Herbicidal effect on D (Chinese sprangletop), foliage application” value (shortened to “Herbicidal effect on D”) [9] was 3 (Herbicidal rate of 40% or more and less than 70%). For the same compound, the “herbicidal effect on southern crabgrass (F)” value (from here on “herbicidal effect … (F)”) [10] was 4 (Herbicidal rate of 70% or more and less than 90%), the “Q: false cleavers, herbicidal effect grade” value (“Q: false cleavers” below) [11] was 0 (Herbicidal rate of 5% or less (almost no effect)) and the “Herbicidal effect, B: Japanese bulrush” value [12] was 5 (Herbicidal rate of 90% or more (almost completely withered)). The “herbicidal effect on green foxtail (G)” value [13] was 4 (Herbicidal rate of 70% or more and less than 90%), the “herbicidal effect on lambsquarters (O)” value [14] was 3 (Herbicidal rate of 40% or more and less than 70%) and the “R: persian speedwell, herbicidal effect grade” value (“R: persian speedwell” for short) [15] was 5 (Herbicidal rate of 90% or more (almost completely withered)). The “herbicidal effect on windgrass (L)” value [16] was 0 (Herbicidal rate of 5% or less (almost no effect)) and the “L: windgrass, herbicidal effect grade” value [17] was 3 (Herbicidal rate of 40% or more and less than 70%).

CCCOc1ccc(-c2oc3ccc(F)cc3c2-c2c(O)c(C)nn(C)c2=O)cc1 [9-023] was tested, and the “Herbicidal effect, C” value [1] was 5 (Herbicidal rate of 90% or more (almost completely withered)), the “Herbicidal effect, A: late watergrass” value [2] was 5 (Herbicidal rate of 90% or more (almost completely withered)) and the “F: southern crabgrass” value [3] was 4 (Herbicidal rate of 70% or more and less than 90%). For the same compound, the “herbicidal effect on barnyard grass (H)” value [4] was 5 (Herbicidal rate of 90% or more (almost completely withered)), the “herbicidal effect rating, C” value [5] was 5 (Herbicidal rate of 90% or more (almost completely withered)) and the “Herbicidal effect on E (rice flat sedge)” value [6] was 5 (Herbicidal rate of 90% or more (almost completely withered)). For the same compound, the “herbicidal effect on wild oat (I)” value [7] was 3 (Herbicidal rate of 40% or more and less than 70%), the “N: redroot pigweed” value [8] was 5 (Herbicidal rate of 90% or more (almost completely withered)) and the “Herbicidal effect on D” value [9] was 3 (Herbicidal rate of 40% or more and less than 70%). For the same compound, the “herbicidal effect … (F)” value [10] was 4 (Herbicidal rate of 70% or more and less than 90%), the “Q: false cleavers” value [11] was 0 (Herbicidal rate of 5% or less (almost no effect)) and the “Herbicidal effect, B: Japanese bulrush” value [12] was 5 (Herbicidal rate of 90% or more (almost completely withered)). The “herbicidal effect on green foxtail (G)” value [13] was 5 (Herbicidal rate of 90% or more (almost completely withered)), the “herbicidal effect on lambsquarters (O)” value [14] was 5 (Herbicidal rate of 90% or more (almost completely withered)) and the “R: persian speedwell” value [15] was 4 (Herbicidal rate of 70% or more and less than 90%). The “herbicidal effect on windgrass (L)” value [16] was 4 (Herbicidal rate of 70% or more and less than 90%) and the “L: windgrass, herbicidal effect grade” value [17] was 3 (Herbicidal rate of 40% or more and less than 70%).

CSc1ccc(-c2oc3ccc(F)cc3c2-c2c(O)c(C)nn(C)c2=O)cc1 [9-037] was tested, and the “Herbicidal effect, C” value [1] was 0 (Herbicidal rate of 5% or less (almost no effect)), the “Herbicidal effect, A: late watergrass” value [2] was 3 (Herbicidal rate of 40% or more and less than 70%) and the “F: southern crabgrass” value [3] was 4 (Herbicidal rate of 70% or more and less than 90%). The “herbicidal effect on barnyard grass (H)” value [4] was 4 (Herbicidal rate of 70% or more and less than 90%), the “herbicidal effect rating, C” value [5] was 2 (Herbicidal rate of 20% or more and less than 40%) and the “Herbicidal effect on E (rice flat sedge)” value [6] was 5 (Herbicidal rate of 90% or more (almost completely withered)). For the same compound, the “herbicidal effect on wild oat (I)” value [7] was 5 (Herbicidal rate of 90% or more (almost completely withered)), the “N: redroot pigweed” value [8] was 5 (Herbicidal rate of 90% or more (almost completely withered)) and the “Herbicidal effect on D” value [9] was 2 (Herbicidal rate of 20% or more and less than 40%). The “herbicidal effect … (F)” value [10] was 4 (Herbicidal rate of 70% or more and less than 90%), the “Q: false cleavers” value [11] was 0 (Herbicidal rate of 5% or less (almost no effect)) and the “Herbicidal effect, B: Japanese bulrush” value [12] was 0 (Herbicidal rate of 5% or less (almost no effect)). For the same compound, the “herbicidal effect on green foxtail (G)” value [13] was 5 (Herbicidal rate of 90% or more (almost completely withered)), the “herbicidal effect on lambsquarters (O)” value [14] was 5 (Herbicidal rate of 90% or more (almost completely withered)) and the “R: persian speedwell” value [15] was 4 (Herbicidal rate of 70% or more and less than 90%). For the same compound, the “herbicidal effect on windgrass (L)” value [16] was 5 (Herbicidal rate of 90% or more (almost completely withered)) and the “L: windgrass, herbicidal effect grade” value [17] was 0 (Herbicidal rate of 5% or less (almost no effect)).

With CCCOc1ccc(-c2oc3ccc(C)cc3c2-c2c(O)c(C)nn(C)c2=O)cc1 [9-049] the “Herbicidal effect, C” value [1] was 5 (Herbicidal rate of 90% or more (almost completely withered)), the “Herbicidal effect, A: late watergrass” value [2] was 5 (Herbicidal rate of 90% or more (almost completely withered)) and the “F: southern crabgrass” value [3] was 4 (Herbicidal rate of 70% or more and less than 90%). The “H (barnyard grass) herbicidal effect grade” value [4, 18] was 5 (Herbicidal rate of 90% or more (almost completely withered)), the “herbicidal effect rating, C” value [5] was 4 (Herbicidal rate of 70% or more and less than 90%) and the “Herbicidal effect on E (rice flat sedge)” value [6] was 3 (Herbicidal rate of 40% or more and less than 70%). For the same compound, the “I (wild oat) herbicidal effect grade” value [7, 18] was 0 (Herbicidal rate of 5% or less (almost no effect)), the “N: redroot pigweed” value [8] was 5 (Herbicidal rate of 90% or more (almost completely withered)) and the “Herbicidal effect on D” value [9] was 2 (Herbicidal rate of 20% or more and less than 40%). The “F (southern crabgrass) herbicidal effect grade” value [10, 18] was 5 (Herbicidal rate of 90% or more (almost completely withered)), the “Q: false cleavers” value [11] was 0 (Herbicidal rate of 5% or less (almost no effect)) and the “Herbicidal effect, B: Japanese bulrush” value [12] was 5 (Herbicidal rate of 90% or more (almost completely withered)). The “G (green foxtail) herbicidal effect grade” value [13, 18] was 5 (Herbicidal rate of 90% or more (almost completely withered)), the “O (lambsquarters) herbicidal effect grade” value [14, 18] was 5 (Herbicidal rate of 90% or more (almost completely withered)) and the “R: persian speedwell” value [15] was 5 (Herbicidal rate of 90% or more (almost completely withered)). The “L (windgrass) herbicidal effect grade” value [16, 18] was 0 (Herbicidal rate of 5% or less (almost no effect)) and the “L: windgrass, herbicidal effect grade” value [17] was 0 (Herbicidal rate of 5% or less (almost no effect)).

Source: patent publication US20230085307A1, “PYRIDAZINONE COMPOUND AND HERBICIDE” (NISSAN CHEMICAL CORPORATION, priority 2019, published 2023)
